Measurements from US20210300924A1, “5-[6-[[3-(4,5,6,7-TETRAHYDROPYRAZOLO[4,3-C]PYRIDIN-1-YL)AZETIDIN-1-YL]METHYL]MORPHOLIN-4-YL]QUINOLINE-8-CARBONITRILE DERIVATIVES AND SIMILAR COMPOUNDS AS TLR7-9 ANTAGONISTS FOR TREATING SYSTEMIC LUPUS ERYTHEMATOSUS” (Hoffmann-La Roche Inc., priority 2018, published 2021).

Biological target: T1, human TLR8 (Homo sapiens, UniProt Q9NR97)
T1 construct: host or cells: HEK293 (HEK-Blue hTLR8)
T1 sequence (Q9NR97 27-1041): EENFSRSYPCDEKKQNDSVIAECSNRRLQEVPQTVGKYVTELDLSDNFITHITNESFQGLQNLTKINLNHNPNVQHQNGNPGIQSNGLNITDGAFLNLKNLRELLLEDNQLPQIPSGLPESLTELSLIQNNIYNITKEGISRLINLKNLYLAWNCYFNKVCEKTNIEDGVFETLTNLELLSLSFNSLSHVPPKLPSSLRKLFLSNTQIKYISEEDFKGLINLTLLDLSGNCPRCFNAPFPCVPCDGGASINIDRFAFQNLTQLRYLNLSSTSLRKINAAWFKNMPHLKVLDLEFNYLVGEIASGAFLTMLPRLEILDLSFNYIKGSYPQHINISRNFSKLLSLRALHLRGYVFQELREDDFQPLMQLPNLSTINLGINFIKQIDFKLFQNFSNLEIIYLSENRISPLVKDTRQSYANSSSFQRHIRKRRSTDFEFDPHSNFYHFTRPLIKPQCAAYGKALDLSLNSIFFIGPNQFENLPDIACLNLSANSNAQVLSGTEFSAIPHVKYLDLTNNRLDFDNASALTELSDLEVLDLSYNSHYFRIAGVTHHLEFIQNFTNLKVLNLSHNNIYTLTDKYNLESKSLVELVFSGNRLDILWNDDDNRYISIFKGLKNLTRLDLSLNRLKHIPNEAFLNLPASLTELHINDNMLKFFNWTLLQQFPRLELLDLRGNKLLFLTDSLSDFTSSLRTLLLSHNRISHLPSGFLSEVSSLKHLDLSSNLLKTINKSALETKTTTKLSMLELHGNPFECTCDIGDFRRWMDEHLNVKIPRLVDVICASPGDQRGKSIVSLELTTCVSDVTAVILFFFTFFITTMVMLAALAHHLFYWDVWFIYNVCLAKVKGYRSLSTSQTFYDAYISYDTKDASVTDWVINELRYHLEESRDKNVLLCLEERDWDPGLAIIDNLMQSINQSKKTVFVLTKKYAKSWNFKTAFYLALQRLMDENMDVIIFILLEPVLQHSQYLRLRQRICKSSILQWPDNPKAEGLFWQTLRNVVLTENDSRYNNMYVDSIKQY
Assay: HEK293-Blue-hTLR-8 cells assay
Assay type: cell-based
Settings: HEK293-Blue-hTLR8 cells, R848 stimulation, 20 hrs, SEAP reporter; read-out: HEK/hTLR8 IC50
Source text: A stable HEK293-Blue-hTLR-8 cell line was purchased from InvivoGen (Cat. #: hkb-htlr8, San Diego, Calif., USA). These cells were originally designed for studying the stimulation of human TLR8 by monitoring the activation of NF-κB. A SEAP (secreted embryonic alkaline phosphatase) reporter gene was placed under the control of the IFN-β minimal promoter fused to five NF-κB and AP-1-binding sites. The SEAP was induced by activating NF-κB and AP-1 via stimulating HEK-Blue hTLR8 cells with TLR8 ligands. Therefore the reporter expression was declined by TLR8 antagonist under the stimulation of a ligand, such as R848, for incubation of 20 hrs. The cell culture supernatant SEAP reporter activity was determined using QUANTI-Blue™ kit (Cat. #: rep-qb1, Invivogen, San Diego, Ca, USA) at a wavelength of 640 nm, a detection medium that turns purple or blue in the presence of alkaline phosphatase.
HEK293-Blue-hTLR8 cells were incubated at a density of 250,000-450,000 cells/mL in a volume of 170 μL in a 96-well plate in Dulbecco's Modified Eagle's medium (DMEM) containing 4.5 g/L glucose, 50 U/mL penicillin, […], […], 2 mM L-glutamine, 10% (v/v) heat-inactivated fetal bovine serum with addition of 20 μL test compound in a serial dilution in the presence of final DMSO at 1% and 10 μL of 60 uM R848 in above DMEM, perform incubation under 37° C. in a CO2 incubator for 20 hrs. Then 20 μL of the supernatant from each well was incubated with […] Quanti-blue substrate solution at 37° C. for 2 hrs and the absorbance was read at 620-655 nm using a spectrophotometer. The signaling pathway that TLR8 activation leads to downstream NF-κB activation has been widely accepted, and therefore similar reporter assay was modified for evaluating TLR8 antagonist.

Structure (SMILES) | IC50 [nM]
C[C@@H]1CN(c2ccc(C#N)c3ncccc23)C[C@H](CN2CC(n3cc4c(n3)[C@H](C)CNC4)C2)O1 (single isomer, unassigned) [Example 25] | 11
C[C@@H]1CN(c2ccc(C#N)c3ncccc23)C[C@H](CN2CC(n3cc4c(n3)[C@@H](C)CNC4)C2)O1 (single isomer, unassigned) [Example 26] | 12
C[C@@H]1Cc2cnn(C3CN(C[C@H]4CN(c5ccc(C#N)c6ncccc56)C[C@@H](C)O4)C3)c2CN1 (single isomer, unassigned) [Example 28] | 10
C[C@@H]1CN(c2ccc(C#N)c3ncccc23)C[C@H](CN2CC(n3cc4c(n3)CN[C@@H](C)C4)C2)O1 (single isomer, unassigned) [Example 29] | 11
C[C@@H]1Cc2cn(C3CN(C[C@H]4CN(c5ccc(C#N)c6ncccc56)C[C@@H](C)O4)C3)nc2CN1 (single isomer, unassigned) [Example 30] | 14
C[C@@H]1CN(c2ccc(C#N)c3ncccc23)C[C@H](CN2CC(n3ncc4c3[C@H](C)NCC4)C2)O1 (single isomer, unassigned) [Example 32] | 10
C[C@@H]1CN(c2ccc(C#N)c3ncccc23)C[C@H](CN2CC(n3cc4c(n3)[C@@H](C)NCC4)C2)O1 (single isomer, unassigned) [Example 33] | 13
C[C@@H]1CN(c2ccc(C#N)c3ncccc23)C[C@H](CN2CC(n3cc4c(n3)[C@H](C)NCC4)C2)O1 (single isomer, unassigned) [Example 34] | 16
C[C@@H]1CN(c2ccc(C#N)c3ncccc23)C[C@H](CN2CC(n3ncc4c3CCNC4)C2)O1 [Example 1, 5-[(2R,6S)-2-methyl-6-[[3-(4,5,6,7-tetrahydropyrazolo[4,3-c]pyridin-1-yl)azetidin-1-yl]methyl]morpholin-4-yl]quinoline-8-carbonitrile] | 17
C[C@@H]1CN(c2ccc(C#N)c3ncccc23)C[C@H](CN2CC(n3cc4c(n3)CCNC4)C2)O1 [Example 2, 5-[(2R,6S)-2-methyl-6-[[3-(4,5,6,7-tetrahydropyrazolo[4,3-c]pyridin-2-yl)azetidin-1-yl]methyl]morpholin-4-yl]quinoline-8-carbonitrile] | 19
C[C@@H]1CN(c2ccc(C#N)c3ncccc23)C[C@H](CN2CC(n3cc4c(n3)CNCC4)C2)O1 [Example 4, 5-[(2R,6S)-2-methyl-6-[[3-(4,5,6,7-tetrahydropyrazolo[3,4-c]pyridin-2-yl)azetidin-1-yl]methyl]morpholin-4-yl]quinoline-8-carbonitrile] | 9
C[C@@H]1CN(c2ccc(C#N)c3ncccc23)C[C@H](CN2CC(n3ncc4c3CNC4)C2)O1 [Example 10, 5-[(2S,6R)-2-[[3-(5,6-dihydro-4H-pyrrolo[3,4-c]pyrazol-1-yl)azetidin-1-yl]methyl]-6-methyl-morpholin-4-yl]quinoline-8-carbonitrile] | 19
C[C@@H]1CN(c2ccc(C#N)c3ncccc23)C[C@H](CN2CC(n3cc4c(n3)CNC4)C2)O1 [Example 11, 5-[(2S,6R)-2-[[3-(5,6-dihydro-4H-pyrrolo[3,4-c]pyrazol-2-yl)azetidin-1-yl]methyl]-6-methyl-morpholin-4-yl]quinoline-8-carbonitrile] | 19
Cc1nn(C2CN(C[C@H]3CN(c4ccc(C#N)c5ncccc45)C[C@@H](C)O3)C2)c2c1CNCC2 [Example 12, 5-[(2R,6S)-2-methyl-6-[[3-(3-methyl-4,5,6,7-tetrahydropyrazolo[4,3-c]pyridin-1-yl)azetidin-1-yl]methyl]morpholin-4-yl]quinoline-8-carbonitrile] | 44
Cc1c2c(nn1C1CN(C[C@H]3CN(c4ccc(C#N)c5ncccc45)C[C@@H](C)O3)C1)CCNC2 [Example 13, 5-[(2R,6S)-2-methyl-6-[[3-(3-methyl-4,5,6,7-tetrahydropyrazolo[4,3-c]pyridin-2-yl)azetidin-1-yl]methyl]morpholin-4-yl]quinoline-8-carbonitrile] | 45
Cc1nn(C2CN(C[C@H]3CN(c4ccc(C#N)c5ncccc45)C[C@@H](C)O3)C2)c2c1CN(C)CC2 [Example 14, 5-[(2S,6R)-2-[[3-(3,5-dimethyl-6,7-dihydro-4H-pyrazolo[4,3-c]pyridin-1-yl)azetidin-1-yl]methyl]-6-methyl-morpholin-4-yl]quinoline-8-carbonitrile] | 10
Cc1c2c(nn1C1CN(C[C@H]3CN(c4ccc(C#N)c5ncccc45)C[C@@H](C)O3)C1)CCN(C)C2 [Example 15, 5-[(2S,6R)-2-[[3-(3,5-dimethyl-6,7-dihydro-4H-pyrazolo[4,3-c]pyridin-2-yl)azetidin-1-yl]methyl]-6-methyl-morpholin-4-yl]quinoline-8-carbonitrile] | 9

The next molecules have a lower IC50 than those just listed; values first:

IC50 [nM] | Structure (SMILES)
8 | C[C@@H]1CN(c2ccc(C#N)c3ncccc23)C[C@H](CN2CC(n3ncc4c3CN[C@@H](C)C4)C2)O1 (single isomer, unassigned) [Example 27]
5 | C[C@@H]1CN(c2ccc(C#N)c3ncccc23)C[C@H](CN2CC(n3ncc4c3[C@@H](C)NCC4)C2)O1 (single isomer, unassigned) [Example 31]
6 | C[C@@H]1CN(c2ccc(C#N)c3ncccc23)C[C@H](CN2CC(n3ncc4c3CNCC4)C2)O1 [Example 3, 5-[(2R,6S)-2-methyl-6-[[3-(4,5,6,7-tetrahydropyrazolo[3,4-c]pyridin-1-yl)azetidin-1-yl]methyl]morpholin-4-yl]quinoline-8-carbonitrile]
6 | C[C@@H]1CN(c2ccc(C#N)c3ncccc23)C[C@H](CN2CC(n3cc4c(n3)CN(C)CC4)C2)O1 [Example 5, 5-[(2R,6S)-2-methyl-6-[[3-(6-methyl-5,7-dihydro-4H-pyrazolo[3,4-c]pyridin-2-yl)azetidin-1-yl]methyl]morpholin-4-yl]quinoline-8-carbonitrile]
5 | CCN1CCc2cnn(C3CN(C[C@H]4CN(c5ccc(C#N)c6ncccc56)C[C@@H](C)O4)C3)c2C1 [Example 6, 5-[(2S,6R)-2-[[3-(6-ethyl-5,7-dihydro-4H-pyrazolo[3,4-c]pyridin-1-yl)azetidin-1-yl]methyl]-6-methyl-morpholin-4-yl]quinoline-8-carbonitrile]
5 | CCN1CCc2cn(C3CN(C[C@H]4CN(c5ccc(C#N)c6ncccc56)C[C@@H](C)O4)C3)nc2C1 [Example 7, 5-[(2S,6R)-2-[[3-(6-ethyl-5,7-dihydro-4H-pyrazolo[3,4-c]pyridin-2-yl)azetidin-1-yl]methyl]-6-methyl-morpholin-4-yl]quinoline-8-carbonitrile]
5 | CC(C)N1CCc2cnn(C3CN(C[C@H]4CN(c5ccc(C#N)c6ncccc56)C[C@@H](C)O4)C3)c2C1 [Example 8, 5-[(2S,6R)-2-[[3-(6-isopropyl-5,7-dihydro-4H-pyrazolo[3,4-c]pyridin-1-yl)azetidin-1-yl]methyl]-6-methyl-morpholin-4-yl]quinoline-8-carbonitrile]
7 | CC(C)N1CCc2cn(C3CN(C[C@H]4CN(c5ccc(C#N)c6ncccc56)C[C@@H](C)O4)C3)nc2C1 [Example 9, 5-[(2S,6R)-2-[[3-(6-isopropyl-5,7-dihydro-4H-pyrazolo[3,4-c]pyridin-2-yl)azetidin-1-yl]methyl]-6-methyl-morpholin-4-yl]quinoline-8-carbonitrile]
